Measured values: PMC6199744, “Development of Chemical Proteomics for the Folateome and Analysis of the Kinetoplastid Folateome” (ACS Infectious Diseases, 2018)
Where two headings read alike, the source gives them in different places.

How the values were obtained:
Assay type in all cases: binding
[1] = target: T1, HeLa cell extract proteins (Homo sapiens, UniProt P11498)
T1 construct: endogenous in cells; host or cells: HeLa cell extract
T1 sequence (P11498 21-1178): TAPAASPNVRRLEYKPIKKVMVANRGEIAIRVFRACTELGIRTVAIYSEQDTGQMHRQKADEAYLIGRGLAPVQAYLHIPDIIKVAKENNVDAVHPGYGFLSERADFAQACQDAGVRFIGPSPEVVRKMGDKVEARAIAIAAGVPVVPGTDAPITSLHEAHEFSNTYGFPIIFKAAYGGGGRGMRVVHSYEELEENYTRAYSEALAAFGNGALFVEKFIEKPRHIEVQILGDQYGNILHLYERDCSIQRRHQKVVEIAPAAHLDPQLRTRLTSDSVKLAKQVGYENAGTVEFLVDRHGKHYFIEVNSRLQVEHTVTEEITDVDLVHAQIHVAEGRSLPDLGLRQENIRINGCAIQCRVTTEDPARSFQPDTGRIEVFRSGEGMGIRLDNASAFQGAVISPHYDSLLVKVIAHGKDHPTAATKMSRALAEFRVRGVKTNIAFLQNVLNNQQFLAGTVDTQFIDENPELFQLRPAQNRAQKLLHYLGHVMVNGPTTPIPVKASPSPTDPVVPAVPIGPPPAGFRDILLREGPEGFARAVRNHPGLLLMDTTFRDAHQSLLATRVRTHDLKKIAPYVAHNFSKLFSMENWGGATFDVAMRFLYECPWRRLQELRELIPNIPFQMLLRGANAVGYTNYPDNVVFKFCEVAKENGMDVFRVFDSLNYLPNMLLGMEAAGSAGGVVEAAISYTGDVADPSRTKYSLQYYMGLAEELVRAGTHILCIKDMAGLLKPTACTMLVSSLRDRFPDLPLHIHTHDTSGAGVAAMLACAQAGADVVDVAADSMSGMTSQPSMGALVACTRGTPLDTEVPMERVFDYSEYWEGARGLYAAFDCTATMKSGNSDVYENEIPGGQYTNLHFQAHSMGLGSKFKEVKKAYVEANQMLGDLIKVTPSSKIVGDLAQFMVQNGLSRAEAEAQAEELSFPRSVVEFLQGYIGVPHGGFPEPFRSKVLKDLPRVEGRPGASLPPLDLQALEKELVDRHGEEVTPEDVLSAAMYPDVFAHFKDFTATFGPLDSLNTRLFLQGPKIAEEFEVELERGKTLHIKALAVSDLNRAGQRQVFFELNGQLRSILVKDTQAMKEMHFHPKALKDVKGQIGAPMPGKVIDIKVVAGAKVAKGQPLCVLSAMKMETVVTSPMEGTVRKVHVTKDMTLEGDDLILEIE

[2] = target: T2, HeLa cell extract proteins (Homo sapiens, UniProt P30046)
T2 construct: endogenous in cells; host or cells: HeLa cell extract

[3] = target: T3, HeLa cell extract proteins (Homo sapiens, UniProt Q15393)
T3 construct: endogenous in cells; host or cells: HeLa cell extract

[4] = target: T4, HeLa cell extract proteins (Homo sapiens, UniProt Q9Y6G9)
T4 construct: endogenous in cells; host or cells: HeLa cell extract

[5] = target: T5, HeLa cell extract proteins (Homo sapiens, UniProt O15111); details: HeLa; protein CHUK
T5 construct: endogenous in cells; host or cells: HeLa cell extract
T5 sequence (O15111 1-745): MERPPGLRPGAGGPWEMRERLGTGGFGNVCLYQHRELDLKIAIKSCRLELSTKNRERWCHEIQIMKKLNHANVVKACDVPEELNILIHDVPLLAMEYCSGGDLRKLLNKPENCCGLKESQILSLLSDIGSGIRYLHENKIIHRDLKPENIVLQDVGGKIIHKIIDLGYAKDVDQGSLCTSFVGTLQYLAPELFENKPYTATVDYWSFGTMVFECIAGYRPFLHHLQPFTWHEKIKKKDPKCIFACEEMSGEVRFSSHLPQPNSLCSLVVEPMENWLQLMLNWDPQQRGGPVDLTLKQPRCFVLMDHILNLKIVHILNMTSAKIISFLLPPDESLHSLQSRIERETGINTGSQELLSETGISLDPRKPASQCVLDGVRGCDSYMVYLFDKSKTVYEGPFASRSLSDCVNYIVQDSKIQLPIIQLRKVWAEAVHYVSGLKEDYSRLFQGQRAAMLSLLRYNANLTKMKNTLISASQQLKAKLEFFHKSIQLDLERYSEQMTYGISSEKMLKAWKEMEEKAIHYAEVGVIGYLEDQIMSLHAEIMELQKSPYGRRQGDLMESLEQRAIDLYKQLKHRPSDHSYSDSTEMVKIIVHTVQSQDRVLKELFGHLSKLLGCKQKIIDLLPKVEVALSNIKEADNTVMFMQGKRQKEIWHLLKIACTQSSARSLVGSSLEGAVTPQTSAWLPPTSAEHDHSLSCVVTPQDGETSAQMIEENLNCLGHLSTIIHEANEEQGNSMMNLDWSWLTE

[6] = target: T6, HeLa cell extract proteins (Homo sapiens, UniProt O43615); details: protein TIMM44; HeLa
T6 construct: endogenous in cells; host or cells: HeLa cell extract
T6 sequence (O43615 1-452): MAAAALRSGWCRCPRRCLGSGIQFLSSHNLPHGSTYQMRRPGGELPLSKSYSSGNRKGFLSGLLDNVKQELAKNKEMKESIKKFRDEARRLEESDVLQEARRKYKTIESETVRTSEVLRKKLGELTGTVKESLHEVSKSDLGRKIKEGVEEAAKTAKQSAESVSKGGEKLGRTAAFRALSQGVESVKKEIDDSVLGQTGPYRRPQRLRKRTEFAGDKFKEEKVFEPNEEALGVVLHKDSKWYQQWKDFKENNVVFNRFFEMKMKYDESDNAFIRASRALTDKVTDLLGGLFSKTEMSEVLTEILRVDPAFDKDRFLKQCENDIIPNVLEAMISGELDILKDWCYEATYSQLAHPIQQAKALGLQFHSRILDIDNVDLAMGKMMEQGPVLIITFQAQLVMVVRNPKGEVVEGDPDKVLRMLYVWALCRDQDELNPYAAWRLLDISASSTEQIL

T2 sequence (P30046 whole entry): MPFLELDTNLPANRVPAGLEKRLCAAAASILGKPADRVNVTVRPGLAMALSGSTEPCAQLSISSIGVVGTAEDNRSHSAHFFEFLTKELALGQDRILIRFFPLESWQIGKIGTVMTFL
T3 sequence (Q15393 whole entry): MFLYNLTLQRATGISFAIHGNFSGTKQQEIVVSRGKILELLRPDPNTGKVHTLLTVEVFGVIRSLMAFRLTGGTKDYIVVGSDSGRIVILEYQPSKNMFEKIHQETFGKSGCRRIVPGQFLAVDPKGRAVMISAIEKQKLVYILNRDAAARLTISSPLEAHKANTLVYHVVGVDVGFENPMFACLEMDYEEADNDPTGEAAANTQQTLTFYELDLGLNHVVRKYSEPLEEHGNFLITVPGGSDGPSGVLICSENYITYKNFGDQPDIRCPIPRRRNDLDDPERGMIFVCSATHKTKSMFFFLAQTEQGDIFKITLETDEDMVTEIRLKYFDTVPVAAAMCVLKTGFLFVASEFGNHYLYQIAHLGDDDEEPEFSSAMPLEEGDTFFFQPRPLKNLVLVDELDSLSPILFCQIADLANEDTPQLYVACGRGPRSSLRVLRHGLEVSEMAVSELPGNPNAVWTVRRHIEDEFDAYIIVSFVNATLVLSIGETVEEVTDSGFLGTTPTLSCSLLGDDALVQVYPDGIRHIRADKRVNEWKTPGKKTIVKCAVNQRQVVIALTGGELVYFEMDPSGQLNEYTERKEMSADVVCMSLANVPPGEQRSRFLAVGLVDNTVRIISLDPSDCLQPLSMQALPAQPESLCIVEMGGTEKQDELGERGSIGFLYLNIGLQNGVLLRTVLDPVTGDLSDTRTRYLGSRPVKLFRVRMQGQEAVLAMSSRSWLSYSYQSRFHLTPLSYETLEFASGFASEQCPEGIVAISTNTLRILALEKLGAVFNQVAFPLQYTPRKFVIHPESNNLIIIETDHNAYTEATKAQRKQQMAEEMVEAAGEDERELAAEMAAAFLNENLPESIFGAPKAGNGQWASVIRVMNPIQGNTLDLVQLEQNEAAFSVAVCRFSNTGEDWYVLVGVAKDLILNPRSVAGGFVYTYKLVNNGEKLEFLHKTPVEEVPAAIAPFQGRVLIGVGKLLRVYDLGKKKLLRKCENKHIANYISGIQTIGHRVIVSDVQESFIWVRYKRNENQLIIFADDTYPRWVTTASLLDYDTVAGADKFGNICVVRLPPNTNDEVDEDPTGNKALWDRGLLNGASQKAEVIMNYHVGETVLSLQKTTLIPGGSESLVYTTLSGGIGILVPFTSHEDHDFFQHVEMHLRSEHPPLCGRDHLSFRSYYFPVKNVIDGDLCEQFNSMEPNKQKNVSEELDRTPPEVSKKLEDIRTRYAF
T4 sequence (Q9Y6G9 whole entry): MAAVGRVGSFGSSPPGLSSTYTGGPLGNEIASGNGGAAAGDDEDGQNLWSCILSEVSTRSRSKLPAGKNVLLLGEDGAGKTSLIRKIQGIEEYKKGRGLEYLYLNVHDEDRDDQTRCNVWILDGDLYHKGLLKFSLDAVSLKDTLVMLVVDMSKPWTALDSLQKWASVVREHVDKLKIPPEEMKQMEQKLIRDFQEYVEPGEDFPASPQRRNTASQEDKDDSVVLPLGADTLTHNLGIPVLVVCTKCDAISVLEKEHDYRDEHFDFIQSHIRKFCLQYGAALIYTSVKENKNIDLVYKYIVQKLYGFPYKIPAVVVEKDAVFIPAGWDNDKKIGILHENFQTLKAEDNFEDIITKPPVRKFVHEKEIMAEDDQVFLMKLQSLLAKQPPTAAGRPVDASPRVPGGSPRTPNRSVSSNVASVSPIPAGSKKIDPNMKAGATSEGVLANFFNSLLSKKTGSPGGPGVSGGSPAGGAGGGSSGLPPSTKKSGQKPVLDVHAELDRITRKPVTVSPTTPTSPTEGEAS

Compound | fold changes relative to vehicle control ([1]; protein PC, HeLa) | fold changes relative to vehicle control ([2]; HeLa, captured protein DDT) | fold changes relative to vehicle control ([3]; HeLa, protein SF3B3) | fold changes relative to vehicle control ([4]; HeLa, protein DYNC1LI1) | fold changes relative to vehicle control [5] | fold changes relative to vehicle control [6] | other results
Nc1nc2c(c(=O)[nH]1)N(C=O)C(CNc1ccc(C(=O)N[C@@H](CCC(=O)O)C(=O)O)cc1)CN2 (stereo partly shown) [LEU, leucovorin] | 0.8 | 1.06 | 1.09 | 0.9 |  |  | 
NCCCNc1ccc(C(=O)NC(CCC(=O)O)C(=O)O)cc1 (stereo not shown) [compound 7] | 1.1 | 1.25 | 1.19 | 0.88 |  |  | 
CCCCCCOc1cccc(Cc2cnc(N)nc2N)c1 [compound 2] |  |  |  |  | 1.04 | 1.29 | 
CCCCCCOc1ccc(Cc2cnc(N)nc2N)cc1 [compound 1] |  |  |  |  | 0.98 | 1.06 | 
Nc1nc2cccc(-c3ccccc3)c2n1Cc1ccc(Cl)c(Cl)c1 [compound 3] |  |  |  |  | 0.9 | 1.03 | 
NCCOCCOCC(=O)Nc1nc2ncc(CNc3ccc(C(=O)NC(CCC(=O)O)C(=O)O)cc3)nc2c(=O)[nH]1 (stereo not shown) [compound 6] | 0.97 | 1.79 | 1.18 | 0.9 |  |  | 
Nc1nc2[nH]cc(CCc3ccc(C(=O)N[C@@H](CCC(=O)O)C(=O)O)cc3)c2c(=O)[nH]1 [PTX, pemetrexed] |  |  |  |  |  |  | fold changes relative to vehicle control [1]: 0.69; fold changes relative to vehicle control [2]: 1.49; fold changes relative to vehicle control [3]: 1.16; fold changes relative to vehicle control [4]: 0.81
